Data: PMC6226181 (PLoS ONE, 2018)
Non-standard residues stand in square brackets, D forms with d. Residues, ends and D or L forms follow the SMILES beside them. *: point of attachment. AFC = O=c1cc(C(F)(F)F)c2ccc(N*)cc2o1; AMC = Cc1cc(=O)oc2cc(N*)ccc12

What was measured:
anthrax lethal factor [1] = target: T1, anthrax lethal factor (Bacillus anthracis, UniProt P15917); conditions: cited from earlier work
anthrax lethal factor [2] = target: T1, anthrax lethal factor; assay type: biochemical; conditions: 5 hours at 37°C
anthrax lethal factor [3] = target: T1, anthrax lethal factor; assay type: biochemical; conditions: 5 hours at 37°C; remark: listed apart in the source

T1 sequence (P15917 34-809 limits assumed): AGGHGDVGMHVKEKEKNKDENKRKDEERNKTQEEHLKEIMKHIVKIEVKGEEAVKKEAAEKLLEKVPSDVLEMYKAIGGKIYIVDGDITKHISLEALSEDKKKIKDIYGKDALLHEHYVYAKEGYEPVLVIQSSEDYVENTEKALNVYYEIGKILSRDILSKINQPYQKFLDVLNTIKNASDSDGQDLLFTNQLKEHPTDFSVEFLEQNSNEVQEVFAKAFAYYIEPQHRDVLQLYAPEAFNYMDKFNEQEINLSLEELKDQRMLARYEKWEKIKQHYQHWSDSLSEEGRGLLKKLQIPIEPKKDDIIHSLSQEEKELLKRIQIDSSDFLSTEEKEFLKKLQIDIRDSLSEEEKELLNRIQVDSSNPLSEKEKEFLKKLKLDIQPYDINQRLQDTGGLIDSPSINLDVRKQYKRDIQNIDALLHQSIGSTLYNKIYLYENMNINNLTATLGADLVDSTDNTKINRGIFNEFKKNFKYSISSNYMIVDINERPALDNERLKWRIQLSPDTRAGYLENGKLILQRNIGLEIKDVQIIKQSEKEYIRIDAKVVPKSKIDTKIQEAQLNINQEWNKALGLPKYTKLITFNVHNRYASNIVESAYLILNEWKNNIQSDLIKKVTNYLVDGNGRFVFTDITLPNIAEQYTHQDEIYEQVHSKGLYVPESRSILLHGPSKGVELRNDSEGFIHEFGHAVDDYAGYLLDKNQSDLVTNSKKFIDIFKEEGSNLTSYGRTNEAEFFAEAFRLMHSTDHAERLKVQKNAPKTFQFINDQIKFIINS

7-methoxy-coumarin-4-acetyl (Mca)-Arg-Arg-Lys-Lys-Val-Tyr-Pro-Try-Pro-Met-Glu -2,4-dinitrophenol (DNP) -Thr-Ile-Ala
Cleavage by LF (anthrax lethal factor [1]): cleaved by LF after the first proline

CC(=O)N[C@@H](CCCNC(=N)N)C(=O)N[C@@H](CCCNC(=N)N)C(=O)N[C@@H](CCCCN)C(=O)N[C@@H](CCCCN)C(=O)N[C@H](C(=O)N[C@@H](Cc1ccc(O)cc1)C(=O)N1CCC[C@H]1C(=O)Nc1ccc2c(C)cc(=O)oc2c1)C(C)C [LBL 10079] (Ac-RRKKVYP-{AMC})
Cleavage by LF in 1:10 diluted bovine plasma (increase in fluorescence) (anthrax lethal factor [2]): does not correlate with the amount of LF

CC(=O)N[C@H](CCCNC(=N)N)C(=O)N[C@H](CCCNC(=N)N)C(=O)N[C@H](CCCCN)C(=O)N[C@H](CCCCN)C(=O)N[C@H](C(=O)N[C@@H](Cc1ccc(O)cc1)C(=O)N1CCC[C@H]1C(=O)Nc1ccc2c(C)cc(=O)oc2c1)C(C)C [LBL 10097] (Ac-[dR][dR][dK][dK]VYP-{AMC})
Cleavage by LF in 1:10 diluted bovine plasma (increase in fluorescence) (anthrax lethal factor [2]): dependent upon the presence and amount of LF

CC(=O)N[C@H](CCCCN)C(=O)N[C@H](CCCCN)C(=O)N[C@H](C(=O)N[C@@H](Cc1ccc(O)cc1)C(=O)N1CCC[C@H]1C(=O)Nc1ccc2c(C)cc(=O)oc2c1)C(C)C [LBL 10100] (Ac-[dK][dK]VYP-{AMC})
Cleavage by LF in assay buffer (increase in fluorescence) (anthrax lethal factor [3]): eliminates hydrolysis at the concentrations of LF used

CC(=O)N[C@@H](CCCNC(=N)N)C(=O)N[C@H](CCCNC(=N)N)C(=O)N[C@H](CCCCN)C(=O)N[C@H](CCCCN)C(=O)N[C@H](C(=O)N[C@@H](Cc1ccc(O)cc1)C(=O)N1CCC[C@H]1C(=O)Nc1ccc2c(C(F)(F)F)cc(=O)oc2c1)C(C)C [LBL 10108] (Ac-R[dR][dK][dK]VYP-{AFC})
Non-specific cleavage in plasma in the absence of LF (plasma proteases): neither peptide is cleaved in plasma in the absence of LF
